Target: T1, KATP channels (Mus musculus, UniProt P70170+Q61743)
T1 construct: Pacing perfused hearts isolated from WT and Kir6.2-KO mice; from tissue; host or cells: isolated, retrogradely perfused and paced hearts of wild-type mice
Test: Rate-dependent action potential duration (APD90) in paced, perfused isolated hearts
Design: species or system mice
Conditions: isolated perfused paced WT mouse hearts, KATP-channel blockade with glyburide, FIG. 5B
Text: FIG. 5. […] The KATP channel-dependent component in rate-dependent action potential shortening was verified in WT hearts following KATP-channel blockade with the sulfonylurea blocker glyburide (FIG. 5B). […] Maximal oxygen consumption (V O2max), corresponding to the highest tolerated workload, reflects the maximal rate of energy production and the ability of the cardiovascular system to supply oxygen. Kir6.2-KO and WT mice achieved the same level of V O2max reflecting their equivalent oxidative phosphorylation potential. […] This was associated with high lactate levels in the blood (FIG. 5E), indicating compromise of the cardiovascular system. Activity-related energy expenditure largely reflects the performance of cardiac and skeletal muscle, tissues with abundant KATP channel expression. Accordingly, cardiac muscle was used as a model of striated musculature. As cardiac function and associated energy consumption depends on electrical determinants, the contribution of KATP channels in heart rate-dependent modulation of action potential duration and rate of oxygen consumption were tested. Telemetry recording of cardiac activity defined that both WT and Kir6.2-KO mice display a heart rate profile with a 400 to 800 beats per minute range (FIG. 5A). […]

T1 sequence (Q61743 whole entry, the tested form may be a part): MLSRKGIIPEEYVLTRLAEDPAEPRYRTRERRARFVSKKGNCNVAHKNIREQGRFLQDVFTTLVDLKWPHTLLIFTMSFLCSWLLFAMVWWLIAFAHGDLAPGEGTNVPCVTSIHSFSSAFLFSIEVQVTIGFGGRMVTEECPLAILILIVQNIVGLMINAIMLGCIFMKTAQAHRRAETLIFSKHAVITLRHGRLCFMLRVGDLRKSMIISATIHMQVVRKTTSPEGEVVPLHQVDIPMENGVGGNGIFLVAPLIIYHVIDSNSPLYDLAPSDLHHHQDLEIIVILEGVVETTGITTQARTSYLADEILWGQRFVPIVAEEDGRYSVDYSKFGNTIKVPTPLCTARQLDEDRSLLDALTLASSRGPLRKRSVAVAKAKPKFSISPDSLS
T1 sequence (P70170 whole entry, the tested form may be a part): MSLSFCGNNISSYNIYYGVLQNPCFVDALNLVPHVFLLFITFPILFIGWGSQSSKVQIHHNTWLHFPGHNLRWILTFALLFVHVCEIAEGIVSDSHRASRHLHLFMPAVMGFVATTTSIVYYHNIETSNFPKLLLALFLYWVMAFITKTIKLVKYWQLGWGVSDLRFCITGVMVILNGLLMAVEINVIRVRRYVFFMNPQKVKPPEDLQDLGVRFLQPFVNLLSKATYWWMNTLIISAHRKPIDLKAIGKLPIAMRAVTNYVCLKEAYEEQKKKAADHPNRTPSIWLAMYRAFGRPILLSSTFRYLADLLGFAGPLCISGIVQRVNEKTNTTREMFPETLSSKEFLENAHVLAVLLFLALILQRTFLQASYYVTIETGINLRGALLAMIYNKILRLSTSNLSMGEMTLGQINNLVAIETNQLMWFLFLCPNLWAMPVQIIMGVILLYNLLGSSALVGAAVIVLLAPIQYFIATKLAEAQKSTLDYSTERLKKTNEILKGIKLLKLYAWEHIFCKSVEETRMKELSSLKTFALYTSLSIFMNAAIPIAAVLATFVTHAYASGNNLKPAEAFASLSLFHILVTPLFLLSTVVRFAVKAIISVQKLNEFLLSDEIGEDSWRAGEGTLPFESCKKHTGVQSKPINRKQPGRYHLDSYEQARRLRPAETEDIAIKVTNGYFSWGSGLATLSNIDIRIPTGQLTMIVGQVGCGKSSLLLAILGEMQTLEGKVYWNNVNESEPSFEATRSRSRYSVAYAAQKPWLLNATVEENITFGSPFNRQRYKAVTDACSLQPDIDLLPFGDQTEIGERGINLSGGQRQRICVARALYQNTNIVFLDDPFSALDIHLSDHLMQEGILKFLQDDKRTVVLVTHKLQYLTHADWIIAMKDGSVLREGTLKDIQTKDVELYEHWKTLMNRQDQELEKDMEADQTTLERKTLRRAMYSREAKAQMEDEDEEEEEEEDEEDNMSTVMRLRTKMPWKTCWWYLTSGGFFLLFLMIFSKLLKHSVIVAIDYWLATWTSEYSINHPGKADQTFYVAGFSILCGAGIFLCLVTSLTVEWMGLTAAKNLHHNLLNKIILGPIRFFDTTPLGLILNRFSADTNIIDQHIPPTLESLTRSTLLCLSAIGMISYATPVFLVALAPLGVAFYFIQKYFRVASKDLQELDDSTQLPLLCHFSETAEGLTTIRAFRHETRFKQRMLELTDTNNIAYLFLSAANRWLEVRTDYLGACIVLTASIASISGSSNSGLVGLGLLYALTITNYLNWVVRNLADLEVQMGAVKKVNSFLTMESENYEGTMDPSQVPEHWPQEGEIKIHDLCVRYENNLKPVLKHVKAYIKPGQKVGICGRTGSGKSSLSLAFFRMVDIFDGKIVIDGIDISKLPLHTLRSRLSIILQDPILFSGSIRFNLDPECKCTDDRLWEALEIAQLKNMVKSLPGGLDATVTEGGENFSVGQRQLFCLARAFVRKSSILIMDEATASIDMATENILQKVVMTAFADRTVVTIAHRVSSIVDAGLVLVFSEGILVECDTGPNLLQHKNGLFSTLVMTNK

COc1ccc(Cl)cc1C(=O)NCCc1ccc(S(=O)(=O)NC(=O)NC2CCCCC2)cc1 [glyburide]
KATP channel-dependent component in rate-dependent action potential shortening (monophasic APD90): verified
